In patent US20230047788A1, “COMPOSITIONS COMPRISING 5-CHOLESTEN-3, 25-DIOL, 3-SULFATE (25HC3S) OR PHARMACEUTICALLY ACCEPTABLE SALT THEREOF AND AT LEAST ONE CYCLIC OLIGOSACCHARIDE” (Virginia Commonwealth University, priority 2016, published 2023):

Assays:
[1] = tested on: liver function markers ALT, AST, ALK, LDH; assay: Liver function markers in serum of mice overdosed with APAP (350 mg/kg); format: in vivo, C57BL/6J mice; settings: vehicle plus 25 mg/kg 25HC3S 0.5 hours after overdose, 24 hours after treatment
Procedure: The ability of 25HC3S to treat symptoms of APAP overdose was examined. 12-week-old male C57BL/6J mice were fasted overnight and injected (intraperitoneally) with APAP: 600 mg/kg (high dose) for mortality studies or 350 mg/kg (low dose) for liver function and gene studies. Control mice received only vehicle (20% (v/v) a propylene glycol, 4% (w/v) cyclodextrin (powdered hydroxypropyl beta cyclodextrin in sterile 10% (w/v) glucose.
(§1) A composition comprising 25 mg/kg of 25HC3S sodium salt in vehicle was administered intravenously to the experimental mice 0.5 hours after APAP administration. Mortality was monitored in the high dose mice. In the low dose mice, the liver function markers aspartate aminotransferase (AST), alanine aminotransferase (ALT), alkaline phosphatase (ALK) and lactate dehydrogenase (LDH), were measured in serum. Impacts on gene expression were determined by Quantitative Real-time PCR. Membrane potentials were measured using JC1 staining and flow cytometry.
One group of low dose mice received treatment with 25HC3S in vehicle 0.5 hours after the overdose. In this group, liver function markers were assessed 24 hours after treatment. […] However, in mice treated with vehicle alone, the values were […] and in mice treated with vehicle plus 25 mg/kg of 25HC3S, the values were near normal. The differences in the measured values were statistically significant.

[2] = tested on: hepatic apoptosis-related genes; assay: Hepatic gene expression by RT2 Profiler PCR Array in APAP overdosed mice; format: in vivo, C57BL/6J mice; settings: liver, APAP 350 mg/kg mice, 24 h
Procedure: as §1
Changes in gene regulation in low dose mice 24 hours after the administration of vehicle and vehicle plus 25HC3S were investigated. The 12-week-old male C57BL/6J mice had received 350 mg/kg APAP via intraperitoneal injection and 30 min later received 7.6% glucose/H2O (C) or vehicle (20% PG/4% HCD/7.6% glucose, P) or 25HC3S (3S). Twenty four hours following APAP injection, liver tissue was harvested and total mRNA was extracted and analyzed using an RT^2 Profiler™ PCR Array assay. The listed genes are involved in apoptosis and/or immune system regulation.

Structure (SMILES): C[C@H](CCCC(C)(C)O)[C@H]1CC[C@H]2[C@@H]3CC=C4C[C@@H](OS(=O)(=O)[O-])CC[C@]4(C)[C@H]3CC[C@]12C.[Na+] [25HC3S, 5-cholesten-3, 25-diol, 3-sulfate]
- liver function markers ALT, AST and LDH [1]: near normal
- Cd40 (NM_011611) gene expression, Fold vs P ([2]; vs P (vehicle) group): −2.7 Fold
- Fasl (NM_010177) gene expression, Fold vs P ([2]; vs P (vehicle) group): −2.6 Fold
- Gadd45a (NM_007836) gene expression, Fold vs P ([2]; vs P (vehicle) group): −10.9 Fold
- Nol3 (NM_030152) gene expression, Fold vs P ([2]; vs P (vehicle) group): 3.6 Fold
- Pvr (NM_027514) gene expression, Fold vs P ([2]; vs P (vehicle) group): −3.3 Fold
- Tnf (NM_013693) gene expression, Fold vs P ([2]; vs P (vehicle) group): −2.4 Fold
- Apaf1 (NM_009741) gene expression, Fold vs C ([2]; vs control (C) group): −2.2 Fold
- Cd40 (NM_011611) gene expression, Fold vs C ([2]; vs control (C) group): −2.1 Fold
- Fasl (NM_010177) gene expression, Fold vs C ([2]; vs control (C) group): −2.1 Fold
- Gadd45a (NM_007836) gene expression, Fold vs C ([2]; vs control (C) group): −9.3 Fold
- Nol3 (NM_030152) gene expression, Fold vs C ([2]; vs control (C) group): 5.3 Fold
- Pvr (NM_027514) gene expression, Fold vs C ([2]; vs control (C) group): −3.9 Fold
- Tnfrsf11b (NM_008764) gene expression, Fold vs C ([2]; vs control (C) group): −2.9 Fold
